Tests used:
[1] = test system: human embryonic stem cells (hESCs); experiment: Medium component requirement assay, hESCs on laminin/collagen-coated plates for seven days; format: cell-based; details: media that contained only the named growth factor
Experimental: (a) Media containing bFGF, insulin, and ascorbic acid sustain the healthy undifferentiated growth of hESCs on laminin/collagen-coated plates. Insulin (20 μg/ml), transferrin (8 μg/ml), albumin (for example, the commercial product known as AlbuMAXI) (10 mg/ml), and ascorbic acid (50 μg/ml) were added to a base medium that consisted of 100% DMEM/F-12 with 20 ng/ml bFGF, 2 mM L-alanyl-L-glutamine, 1×MEM essential amino acids solution, 1×MEM non-essential amino acids solution, and 100 μM β-mercaptoethanol. The degree of differentiation was judged by morphology of the colonies and Oct-4 expression. […] (red). […] However, if ascorbic acid was omitted from the media [D, H, L] […] White arrows in all panels delineate the edge of an hESC colony. The area delineated by the white square in [A], [E], and [I] indicates the approximate area that is visualized at higher magnification in [B, C], [F, G], and [J, K], respectively. [C], [G], and [K] is the image in [B], [F], and [J], respectively, merged with DAPI staining of their nuclei (blue).
(b) When either bFGF or insulin was omitted from the media, hESC colonies appeared to differentiate completely under the feeder- and serum-free conditions. […] The distinct growth effects of insulin and bFGF were further accentuated in media lacking ascorbic acid [C, F] (“NO Ascorbic Acid”). In the absence of ascorbic acid and in media that contained only insulin as the growth factor [C] (phase) (“NO Ascorbic Acid”), slower growth of the differentiated hESCs was observed (compare [A, B] to [C]). In ascorbic-acid-lacking media that contained bFGF as the only growth factor [F] […] White arrows in all panels delineate the edge of hESC colonies.
Having determined that substantial numbers of undifferentiated hESCs could be maintained over long periods in feeder-free environments using the bFGF-supplemented media described above, the necessity of other components in the medium to maintain hESCs in an undifferentiated state was next examined. “Knockout Serum Replacement” contains insulin, transferrin, ascorbic acid, amino acids, and AlbuMAX (a chromatographically-purified lipid-rich bovine serum albumin [BSA] with low IgG content, but nevertheless a xeno-derived product). Accordingly, whether insulin, transferrin, BSA, and ascorbic acid were essential components was assessed, in combination with bFGF, for maintaining hESCs in an undifferentiated state. The serum replacement components insulin (20 μg/ml), transferrin (8 μg/ml), albumin (AlbuMAX) (10 mg/ml), and ascorbic acid (50 μg/ml) were added to a base medium that consisted of DMEM/F-12 or KO-DMEM with bFGF (20 ng/ml), L-alanyl-L-glutamine or L-glutamine (2 mM), MEM essential amino acids solution (1×), MEM nonessential amino acids solution (1×), and β-mercaptoethanol (100 μM). To assay for the differentiation-forestalling activity of each of these components, undifferentiated hESCs were seeded on laminin/collagen-coated plates and cultivated for seven days in media containing one or more of the individual components. The degree of differentiation of the colonies was judged by defining morphology and Oct-4 expression.
When either bFGF or insulin was omitted from the media, more than 90% of the colonies appeared to differentiate completely within the first passage, as indicated by their differentiated morphology (FIG. 2b, A,B,D,E), their complete loss of Oct-4 expression, and their expression of the cell surface marker SSEA-1 (FIG. 2c, B,C). […] The different effects of insulin and bFGF were accentuated further in media lacking ascorbic acid. In the absence of ascorbic acid and in media containing only insulin, the growth of differentiated hESCs was simply slower (FIG. 2b, C). […] Although albumin and transferrin are not crucial components for sustaining the undifferentiated growth of hESCs, they might abet survival or maintenance of a normal colony shape.

[2] = test system: human embryonic stem cells (hESCs); experiment: Short-term proliferation assay (growth rate) of hESCs in defined hESC media; format: cell-based; details: feeder-free
Experimental: (b) Short-term proliferation assays—assessing cell number. The growth rate of hESCs maintained under the feeder-free condition in the defined hESC media containing 0, 4, 10, 20, 30, or 50 ng/ml bFGF were determined and compared to that of hESCs maintained on laminin/collagen-coated plates in the MEF-conditioned media (MEF-CM) containing 10 ng/ml bFGF (see, for example, Xu, C., et al., Nat. Biotechnol. 19, 971-974 (2001)).
To further assess the effect of bFGF on hESC undifferentiated growth, short-term proliferation assays of hESCs maintained under the feeder-free condition in the defined hESC media containing 0, 4, 10, 20, 30, or 50 ng/ml bFGF were performed. The growth rate (FIG. 1b) and the percentage of undifferentiated colonies (FIG. 1c) in response to bFGF doses were compared to those of hESCs maintained in MEF-conditioned media (MEF-CM) (the latter also actually “spiked” with an additional 10 ng/ml bFGF). […] To further affirm the role of bFGF on hESC undifferentiated growth, hESCs carrying a reporter gene (enhanced green fluorescence protein [EGFP]) under control of Oct-4 promoter were generated (via lentiviral-mediated transduction).

Q: What does the source list for “bFGF: basic fibroblast growth factor, growth factor added to the defined hESC media”?
A: cell morphology in differentiated colonies [1]: elliptically-shaped cells; growth rate of hESCs ([2]; bFGF 10 to 50 ng/ml, compared with MEF-CM): growth rate comparable to that maintained in MEF-CM; growth of hESCs ([2]; low concentration of bFGF (4 ng/ml), defined media): significantly slow growth

Reference: patent publication US20080241919A1, “Defined media for pluripotent stem cell culture” (The Burnham Institute of Medical Research, priority 2003, published 2008)
